Measured values published in patent US9250240B2, “Immunoreactive Ehrlichia p120/p140 epitopes and uses thereof” (Research Development Foundation, priority 2009, dated 2016).
No end group written: not given here.

Legend:
[1] = tested on: E. chaffeensis antibodies in HME patient sera; test: ELISA evaluation of E. chaffeensis immunodeterminants for serologic diagnosis of HME; type: binding, human
Experimental: ELISA. For epitope mapping, an ELISA was performed as previously described (Luo et al., 2009). For serologic diagnosis evaluation, an Immobilizer amino plate (Nunc, Roskilde, Denmark) was used to increase the signal-to-noise ratio. Immobilizer amino plates were coated with synthetic peptides or recombinant proteins (0.5 μg/well; 50 μl) suspended in 100 mM sodium carbonate buffer (pH 9.6) and incubated with gentle agitation at room temperature for 1 to 2 h or overnight at 4° C. The wells were washed four times with 300 μl phosphatebuffered saline containing 0.05% (vol/vol) Tween 20 (PBST; pH 7.2) by a plate washer (SkanWasher 400; Molecular Devices, Sunnyvale, Calif.). Dog or human sera diluted (1:100 or 1:200, respectively) in PBST were added to each well (50 μl) and incubated at room temperature for 1 h. The plates were washed again, and 50 μl alkaline phosphatase-labeled goat anti-dog or -human IgG(H+L) secondary antibody (Kirkegaard & Perry Laboratories, Gaithersburg, Md.) diluted (1:5,000) in PBST was added and incubated at room temperature for 1 h. After the addition of substrate (BluePhos; Kirkegaard & Perry Laboratories), plates were incubated in the dark for 30 min, color development was determined on a microplate reader (VersaMax; Molecular Devices, Sunnyvale, Calif.) at A650, and data were analyzed by SoftMax Pro version 4.0 (Molecular Devices). Optical density (OD) readings represent the mean OD value for three wells (±standard deviations) after subtracting the OD value of the negative control wells. All sera negative for E. chaffeensis by IFA had readings of <0.05 OD unit; therefore, a positive sample threshold was set at >0.1 OD unit. In addition, a reading of 0.1 to 0.5 OD unit was considered a weak positive, and a reading of >0.5 OD unit was considered a strong positive. IFA. The anti-E. chaffeensis antibody status in HME patient sera was determined as described previously (McBride et al., 2003). […] The statistical differences between experimental groups were assessed with the two-tailed Student t test, and significance was indicated by a P value of <0.05. […]

[2] = tested on: antibodies in anti-E. canis dog sera; test: ELISA of overlapping synthetic peptides spanning the E. canis p140 repeat unit; type: binding; conditions: four anti-E. canis sera from naturally infected dogs (nos. 2160, 6, 10, 18)
Experimental: ELISA. Enzyme-linked immunosorbent assay (ELISA) plates (MaxiSorp; Nunc, Roskilde, Denmark) were coated (0.5 μg/well; 50 μl) with recombinant proteins or synthetic peptides suspended in phosphate-buffered saline (pH 7.4). Proteins and peptides were absorbed for 1 h at room temperature with gentle agitation, and subsequently washed thrice with 200 μl Tris-buffered saline containing 0.2% Tween 20 (TBST). Plates were blocked with 100 μl 10% equine serum (Sigma) in TBST for 1 h at room temperature with agitation, and washed. Convalescent dog or human sera diluted (1:100 or 1:200, respectively) in 10% equine serum-TBST were added to each well (50 μl) and incubated at room temperature for 1 h with gentle agitation. […] The plates were incubated in the dark for 30 min with agitation, and color development was determined on a microplate reader (VersaMax; Molecular Devices, Sunnyvale, Calif.) at A650 and data analyzed by SoftmaxPro v4.0 (Molecular Devices). Optical density (OD) readings represent the mean OD for three wells (±standard deviations) after subtracting the OD value of the buffer-only wells. A reading >0.2 OD unit above the negative control absorbance was considered positive for all samples. In addition, a reading 0.2-0.5 OD unit above the control absorbance was considered a weak positive, and a reading >0.5 OD unit above the control absorbance was considered a strong positive. […]

[3] = 31 HME patient sera (IFA titers 64 to 8192), positive = 0.1 OD unit above negative control

| Substance | % of patients with detectable antibodies [1, 3] [%] | No. of patients with detectable antibodies [1, 3] | specificity for diagnosing HME ([1]; as worded in the summary) [%] | Immunoreactivity by ELISA [2] |
| --- | --- | --- | --- | --- |
| TRP32 peptides: equal (w:w) mixture of TRP32-R3 and TRP32-R4 peptides (chain 1 SDLHGSFSVELFDPFKEAVQLGNDLQQSSD; chain 2 SDSHEPSHLELPSLSEEVIQLESDLQQSSN; not fully specified) | 87.1 | 27 | 87.1 |  |
| p140R-3: 11-mer overlapping synthetic peptide of the E. canis p140 repeat unit (SKEESTPEVKA) |  |  |  | virtually nonreactive |
